Data on 17 compounds can be found in US9966622B2, “Small organic molecule based flow battery” (President and Fellows of Harvard College, priority 2012, dated 2018).

Data set [1] in a line: Half-cell cyclic voltammetry of quinones, E^0 (Example 13). The data set is classed as physicochemical. Particulars: 1 mM in 1 M sulfuric acid, pH 0, glassy carbon, 25 mV/s. The method, then:
1 mM solutions of the quinones listed in the following table were prepared in 1 M sulfuric acid solution. The pH of the solutions was 0. Half-cell electrochemical data were recorded using a working electrode consisting of a flat 3 mm diameter disk of glassy carbon, a coiled platinum wire as a counter electrode, and a Ag/AgCl reference electrode. Cyclic voltammograms were recorded using sweep rates of 25 mV/s.

Data set [2] is described as follows: Cyclic voltammetry of AQDS on glassy carbon (Example 3). Particulars: 1 mM in 1 M sulfuric acid, glassy carbon disc. Type of data set: physicochemical. An excerpt:
AQDS was subjected to half-cell electrochemical measurements. […] The peak separation of 34 mV was close to the 59 mV/n, where n was the number of electrons involved, expected for a two-electron process.

The nature of data set [3]: Stability of AQDS to Br2 / HBr by NMR (Example 12). Type of data set: physicochemical. The note with it: for stability to 2 M / concentrated HBr and Br2: heated to 100° C. for 48 h (two days). The method, then:
50 mg of 9,10-anthraquinone-2,7-disulfonic acid was dissolved in 0.4 mL of D2O was treated with 100 μL of Br2. The ^1H and ^13C NMR spectra (FIGS. 17A-B and 18A-B) were unchanged from the starting material after standing for 20 hours at 25° C. 50 mg of AQDS was then treated with 1 mL of concentrated HBr and 100 μL of Br2. The reaction was heated to 100° C. for 48 h and evaporated to dryness at that temperature. The resulting solid was fully dissolved in D2O giving unchanged and ^1H and ^13C NMR (FIGS. 17C and 18C); however, the ^1H NMR reference was shifted due to residual acid.

A short description of data set [4]: Aqueous solubility. The note with it: pH 0, aqueous buffer. The data set is classed as physicochemical.
Data set [5] in a line: Rotating disk electrode measurements of AQDS (Example 4). Type of data set: physicochemical. The method, then:
FIG. 5B is a graph of rotating disk electrode measurements using a glassy carbon electrode in 1 M H2SO4 at eleven rotation rates ranging from 200 (red) to 3600 rpm (dk. green).
FIG. 6 is a Levich plot (current vs. rotation rate) of 1 mM AQDS in 1 M H2SO4. Best fit line has a slope of 0.453(2) μA s^1/2 rad^−1/2.
FIG. 7 is a Koutecký-Levich plot (current^−1 vs. rotation rate^−1/2).
FIG. 8 is a Tafel plot (overpotential vs. log(current)) constructed using the current response in the absence of mass-transport at low overpotentials, extrapolated from the zero-intercept of FIG. 7 (infinite rotation rate). Best fit line is the function y=62(x+4.32). This yields α=0.474(2) and k0=7.2(5)×10^−3 cm s^−1.
The glassy carbon disk in Example 3 was rotated at a variety of rates yields mass-transport limited currents from which the AQDS diffusion coefficient (D=3.8(1)×10^−6 cm^2 s^−1)(compare D in [38]) and kinetic reduction rate constant could be determined (FIGS. 5B, 6, 7, and 8). […] This rate constant was faster than that found for many other species used in flow cells such as V^3+/V^2+, Br2/Br^−, and S4^2−/S2^2− (see Table 2 in [40]). The electrochemical reversibility of the two-electron redox reaction was confirmed by the slope of the Tafel plot (FIG. 8), which gave the transfer coefficient α=0.474, which is close to the value of 0.5 expected for an ideally reversible reaction.

A short description of data set [6]: Pourbaix diagram of AQDS redox couple vs. pH (Example 5). The data set is classed as physicochemical. The method, then: FIG. 5C is a Pourbaix diagram of AQDS. Solid lines indicate slopes of −59 mV/pH, −30 mV/pH, and 0 mV/pH, corresponding to two-, one-, and zero-proton processes respectively. Dashed lines linearly extrapolate the one- and zero-proton processes to give E^0 values of 18 mV (2 e^−/1 H^+) and −296 mV (2 e^−/0 H^+).
To further understand the AQDS redox behavior, we generated a Pourbaix diagram (FIG. 5C) of the equilibrium potential of the AQDS redox couple vs. pH. Aqueous 1 mM solutions of AQDS disodium salt were prepared and pH buffered using the following chemicals: sulfuric acid (1 M, pH 0), HSO4^−/SO4^2− (0.1 M, pH 1-2), AcOH/AcO^− (0.1 M, pH 2.65-5), H2PO4^−/HPO4^2− (0.1 M, pH 5.3-8), HPO4^2−/PO4^3− (0.1 M, pH 9.28-11.52), and KOH (0.1 M, pH 13). The pH of each solution was adjusted with 1 M H2SO4 or 0.1 M KOH solutions. […] In more basic conditions (7<pH<11), a two-electron, one-proton process occurred, giving a 30 mV/pH slope. The potential became pH-independent at values greater than 11, which indicated a two-electron, zero-proton process.

Data set [7] in a line: Half-cell cyclic voltammetry compared with AQDS (Examples 6 and 7). The note with it: 1 mM in 1 M H2SO4; listed as 1,8-(OH)2-AQDS. The data set is classed as physicochemical.
For data set [8] the following is noted: cited from earlier work.
Data set [9] is described as follows: Stability of quinone form in aqueous solution, cyclic voltammetry of catechol (Example 1). The data set is classed as physicochemical. The note with it: 1 N H2SO4. An excerpt:
1 molal 1,2-ortho-benzohydroquinone (catechol) was oxidized in 1 N H2SO4 at a flat Pt electrode, obtaining the cyclic voltammetry curves shown in FIG. 3A. The sweep starts at (0.2 V, 0 mA/cm^2) and proceeds at 25 mV/s to the right. At about 600 mV vs. Ag/AgCl (the known E^0 is 795 mV vs. SHE), the current density increases as catechol is oxidized to the orthoquinone form. The oxidative current density peaks at about 150 mA/cm^2. The peak and downturn are caused by reactant depletion in a quiescent (non-flowing, non-stirred) electrolyte. In a test at a higher concentration of 3.9 molal (FIG. 3B), we observe asymmetric oxidation and reduction peaks, achieving current densities above 500 mA/cm^2 for the former. The asymmetric shape of the curve in FIG. 3B arises because the quinone form is unstable in aqueous solution. In addition the limited solubility of ortho-benzoquinone (0.06 M) compared to its reduced form precludes symmetric behavior at high concentration.

The conditions of data set [10]: aqueous, no source given; cited from earlier work.

≈ marks a conversion by molar mass, not a printed value. Where “and” joins values, the source holds several entries; their conditions need not be identical. Equal values may be shown once. Read-outs that look alike come from different tables or passages of the source.

On to “2-bromo-1,4-naphthoquinone-3-sulfonic acid [Entry 14]”, for which, in data set [1], the “Standard Reduction Potential E^0 in Volts vs. the standard hydrogen electrode (SHE)” value amounted to 0.371 Volts.

As to `O=C1c2ccc(S(=O)(=O)O)cc2C(=O)c2cc(S(=O)(=O)O)ccc21` [Entry 1, 9,10-anthraquinone-2,7-disulfonic acid], the “peak separation (cyclic voltammetry)” value in data set [2] was 34 mV. Moreover, the “stability to 2 M / concentrated HBr and Br2” value in data set [3] is recorded as “no reaction”; in data set [3] (listed as 9,10-anthraquinone-2,7-disulfonate), “stable”. For the same compound, the “stability to Br2 (1H and 13C NMR spectra)” value in data set [3] (in D2O, 20 hours at 25° C.) is recorded as “unchanged”. Also, the solubility (usually the dissolved amount per volume that the medium holds) in data set [4] was around 1000 mM (≈ 368 mg/mL). Besides, the “diffusion coefficient D” value in [5] (1 mM in 1 M H2SO4, rotating glassy carbon disk) is 3.8(1)×10^−6 cm^2 s^−1. The “kinetic reduction rate constant k0” value in data set [5] (reduction on glassy carbon, 1 M H2SO4) is on record as 7.2(5)×10^−3 cm s^−1. Also, in data set [1], the “Standard Reduction Potential E^0 in Volts vs. the standard hydrogen electrode (SHE)” value is recorded as 0.213 Volts. In [6] (linear extrapolation of one-proton process), the “E^0 (2 e^−/1 H^+), extrapolated” value is on record as 18 mV. The “E^0 (2 e^−/0 H^+), extrapolated” value in data set [6] (linear extrapolation of zero-proton process) is on record as −296 mV.

Consider `O=C1c2ccc(S(=O)(=O)O)cc2C(=O)c2ccc(S(=O)(=O)O)cc21` [Entry 2, 9,10-anthraquinone-2,6-disulfonic acid], for which, in data set [1], the “Standard Reduction Potential E^0 in Volts vs. the standard hydrogen electrode (SHE)” value is given as 0.212 Volts.

Consider `O=C1c2cccc(S(=O)(=O)O)c2C(=O)c2c1cccc2S(=O)(=O)O` [Entry 3, 9,10-anthraquinone-1,8-disulfonic acid], for which the “Standard Reduction Potential E^0 in Volts vs. the standard hydrogen electrode (SHE)” value in [1] worked out at 0.182 Volts.

For the compound `O=C1c2cccc(S(=O)(=O)O)c2C(=O)c2cccc(S(=O)(=O)O)c21` [Entry 4, 9,10-anthraquinone-1,5-disulfonic acid], the “Standard Reduction Potential E^0 in Volts vs. the standard hydrogen electrode (SHE)” value in [1] is listed as 0.223 Volts.

Regarding `O=C1c2ccccc2C(=O)c2cc(S(=O)(=O)O)ccc21` [Entry 5, 9,10-anthraquinone-2-sulfonic acid], in [1], the “Standard Reduction Potential E^0 in Volts vs. the standard hydrogen electrode (SHE)” value is reported as 0.171 Volts.

As to `O=C1c2ccccc2C(=O)c2cc(CS(=O)(=O)O)c(CS(=O)(=O)O)cc21` [Entry 6, 9,10-anthraquinone-2,3-dimethanesulfonic acid], in [1], the “Standard Reduction Potential E^0 in Volts vs. the standard hydrogen electrode (SHE)” value amounted to 0.114 Volts.

Turning to `O=C1c2ccc(S(=O)(=O)O)c(O)c2C(=O)c2c1ccc(S(=O)(=O)O)c2O` [Entry 7, 1,8-dihydroxy-9,10-anthraquinone-2,7-disulfonic acid], the “Standard Reduction Potential E^0 in Volts vs. the standard hydrogen electrode (SHE)” value in data set [1] stood at 0.118 Volts. Further, the “lowering of reduction potential relative to AQDS” value in data set [7] is ~100 mV and 95 mV.

Regarding `O=C1c2ccc(S(=O)(=O)O)c(O)c2C(=O)c2ccc(S(=O)(=O)O)c(O)c21` [Entry 8, 1,5-dihydroxy-9,10-anthraquinone-2,6-disulfonic acid], in data set [1], the “Standard Reduction Potential E^0 in Volts vs. the standard hydrogen electrode (SHE)” value stood at 0.116 Volts.

Turning to `O=C1c2ccccc2C(=O)c2c(O)c(S(=O)(=O)O)cc(O)c21` [Entry 9, 1,4-dihydroxy-9,10-anthraquinone-2-sulfonic acid], the “Standard Reduction Potential E^0 in Volts vs. the standard hydrogen electrode (SHE)” value in data set [1] is 0.094 Volts.

With `O=C1c2ccccc2C(=O)c2c(O)c(S(=O)(=O)O)c(O)c(O)c21` [Entry 10, 1,3,4-trihydroxy-9,10-anthraquinone-2-sulfonic acid], the “Standard Reduction Potential E^0 in Volts vs. the standard hydrogen electrode (SHE)” value in data set [1] was determined as 0.088 Volts.

For the compound `O=C1C=C(S(=O)(=O)O)c2ccccc2C1=O` [Entry 11, 1,2-naphthoquinone-4-sulfonic acid], the “Standard Reduction Potential E^0 in Volts vs. the standard hydrogen electrode (SHE)” value in [1] was determined as 0.423 Volts.

For `O=C1C=C(S(=O)(=O)O)C(=O)c2ccccc21` [Entry 12, 1,4-naphthoquinone-2-sulfonic acid], the “Standard Reduction Potential E^0 in Volts vs. the standard hydrogen electrode (SHE)” value in [1] is 0.356 Volts.

On to `O=C1C(Cl)=C(S(=O)(=O)O)C(=O)c2ccccc21` [Entry 13, 2-chloro-1,4-naphthoquinone-3-sulfonic acid], for which the “Standard Reduction Potential E^0 in Volts vs. the standard hydrogen electrode (SHE)” value in [1] was found to be 0.368 Volts.

On to `Oc1ccccc1O` [catechol, 1,2-ortho-benzohydroquinone], for which, in data set [8] (vs. SHE), the “known E^0” value is 795 mV.

On to `O=C1C=CC=CC1=O` [ortho-benzoquinone], for which, in [9], the “stability in aqueous solution” value is reported as “unstable”. In addition, in data set [10], the solubility was 60 mM (≈ 6.49 mg/mL).

In the case of `CC1=C(C)C(=O)C(C)=C(C)C1=O` [tetramethylbenzoquinone], the redox potential in data set [8] (aqueous, literature values [28], [29]) was 0.040 V and 0.068 V.
